The text below walks through data of article PMC7649969, “Pyrazolyl-pyrimidones inhibit the function of human solute carrier protein SLC11A2 (hDMT1) by metal chelation” (RSC Medicinal Chemistry, 2020).

Entries after “also recorded” stand apart in the source; their conditions may differ.

The target of this experiment is T1, SLC39A8 (hZIP8) (Homo sapiens, UniProt Q9C0K1).
T1 construct: DsRED; expressed in transfected cells; host or cells: HEK293T (ATCC CRL-3216), transient transfection with Lipofectamine 2000
T1 sequence (Q9C0K1 23-460): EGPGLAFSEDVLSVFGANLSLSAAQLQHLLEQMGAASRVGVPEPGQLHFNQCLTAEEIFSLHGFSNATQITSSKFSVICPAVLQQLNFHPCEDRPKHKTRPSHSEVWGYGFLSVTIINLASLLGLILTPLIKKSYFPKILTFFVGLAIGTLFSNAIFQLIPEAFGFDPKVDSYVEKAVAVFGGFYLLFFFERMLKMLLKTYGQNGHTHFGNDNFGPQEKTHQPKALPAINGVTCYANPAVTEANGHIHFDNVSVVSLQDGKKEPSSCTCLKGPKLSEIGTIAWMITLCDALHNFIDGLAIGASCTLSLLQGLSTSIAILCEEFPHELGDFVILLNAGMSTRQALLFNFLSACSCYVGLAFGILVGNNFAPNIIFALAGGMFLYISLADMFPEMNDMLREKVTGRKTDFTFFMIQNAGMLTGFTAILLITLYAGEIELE
Put plainly: 55Fe2+ uptake by HEK293T cells transiently transfected with hZIP8. The conditions noted are these: for inhibition of 55Fe2+ uptake by hZIP8: compound 10 μM, 55Fe2+ 1 μM, pH 7.4, HEK293T; for IC50: HEK293T transiently transfected with hZIP8, 55Fe2+ 1 μM, pH 7.4. It counts as cell-based. The source says:
Complex formation with Fe^2+ should result in non-selective inhibition of different metal transporters. To test this hypothesis, we investigated whether human SLC39A8 (hZIP8), a transporter of Zn^2+ and Fe^2+ unrelated to SLC11 family, might also be inhibited by our hDMT1 inhibitors. Both SLCs can be tested by inhibition of radioactive iron uptake into HEK293 cells expressing the transporter, at pH 5.5 for hDMT1 and at pH 7.4 for hZIP8.
Fig. 5 Cross reactivity of hDMT1 inhibitors over the functional activity of the divalent metal transporter hZIP8. (a) ^55Fe^2+ uptake (1 μM) by HEK293T cells (source: American Type Culture Collection, catalog no. CRL-3216) transiently transfected with the empty vector (Ev), hDMT1 or hZIP8. Uptake assay was performed at the optimal pH for the functional activity of each transporter (pH 5.5 and pH 7.4 respectively). The indicated compounds (10 μM) were pre-incubated for 5 min, and then, for 15 min with both compound and ^55Fe^2+. Measured ^55Fe^2+ was corrected by subtracting the background iron uptake measured in non-transfected cells. The data was normalized to the Fe^2+ uptake measured in the presence of DMSO (0.1%) and represented as mean ± SD (N = 5–16; obtained from 2 independent experiments). IC50 determination for pyrazolyl-pyrimidone 13 (b) and bipyridine (c) in HEK293T cells transiently transfected with hDMT1 (left panels) or hZIP8 (right panels). ^55Fe^2+ uptake (1 μM) was measured in the presence of the indicated compound concentration ranges, and the measurements were corrected by subtracting the background iron uptake measured in non-transfected cells. IC50 values were calculated by fitting the data to a sigmoidal 4-parameter equation. Representative experiments are depicted, while IC50 values were calculated as mean ± SD of 3 different experiments.
Chemicals and reagents were purchased from Merck, except where indicated otherwise.
Cell Culture. Cellular experiments where conducted either with a HEK293 cell line (ATCC) stably expressing DsRED-hDMT1 plasmid or HEK293T cells (ATCC) transiently transfected with DsRED-hZIP8 or DsRED-hDMT1 plasmids. The cell line stably expressing hDMT1 was generated as described in previous works1,2. In both cases, cells were cultured in Dulbecco´s modified Eagle´s medium (DMEM) supplemented with 10 % foetal bovine serum (FBS), 10 mM HEPES and 1 mM Na-pyruvate under standard cell culture conditions (37 °C, 95 % humidity and air containing 5 % CO2). When culturing the hDMT1 overexpressing cell line, to maintain stable the expression of the exogenous plasmid, culture media was also supplemented with […] geneticin (Life Technologies). […]
Radiolabelled iron uptake assay. Cells were seeded in clear bottom, white-well, poly-D-lysine coated 96-well plates (Corning). HEK293 cells stably over-expressing hDMT1 were seeded 24 hours before the experiment at a density of 50,000 cells/well. HEK293T cells were seeded at 30,000 cells/well 48 hours before the experiment, and 24 hours after were transfected […]
using Lipofectamine 2000 (Life technologies) as described in the manufacturer’s protocol.
Before the uptake assay, culture media was aspirated and the cells were washed with the uptake solution (140 mM NaCl, 2.5 mM KCl, 1 mM CaCl2, 1 mM MgCl2, 1.2 mM K2HPO4, 10 mM glucose, 5 mM HEPES, 5 mM MES, pH 7.4). To determine the iron uptake, the cells were incubated for 15 min at room temperature (RT) with uptake solution (pH 5.5) supplemented with 100 µM Ascorbic acid, and the indicated amount of non-radioactive Ferrous iron (Fe2+) and radiolabelled 55Fe2+ (American Radiolabelled) (0.5 µCi/mL). To stop the uptake process, the solution containing the radiotracer was removed and cells were washed with ice-cold uptake solution (pH 7.5). To determine the iron accumulated within the cells during the incubation time, the scintillation cocktail Mycrosinth 20 (PerkinElmer) was added to each well, and the cells were incubated during 1 hour at RT under constant agitation. […]

For `N=C(N)SCc1cccc2c1oc1c(CSC(=N)N)cccc12` [Compound 1, reference compound], the “inhibition of 55Fe2+ uptake by hZIP8” value is given as “no measurable activity on hZIP8”.

As to `c1ccc(-c2ccccn2)nc1` [bipyridine], the IC50 was around 6.5 µM and the “inhibition of 55Fe2+ uptake by hZIP8” value is “inhibited both transporters”.

For `Cc1cc(O)nc(-n2nc(C)cc2C)n1` [Compound 5], the “inhibition of 55Fe2+ uptake by hZIP8” value was “inhibited both transporters”.

As for `Cc1cc(=O)[nH]c(-n2nc3c(c2C)CCCC3)n1` [Compound 13], the IC50 is around 1.1 µM and the “inhibition of 55Fe2+ uptake by hZIP8” value was “inhibited both transporters; also recorded: cross-inhibition”.

For `Cc1nn(-c2ccccn2)c(O)c1C(=O)Nc1cccc(C(F)(F)F)c1` [Compound 3, reference compound], the “inhibition of 55Fe2+ uptake by hZIP8” value is on record as “inhibited both transporters”.
